{"source": "ChEMBL document CHEMBL1201862", "about": "“PubChem BioAssay data set” (2004)", "test_in_all_cases": "NCI-60 cell line screen, 48 h", "key": {"OVCAR-5": {"system": "OVCAR-5"}, "SR": {"system": "SR"}, "NCI-H23": {"system": "NCI-H23"}, "OVCAR-3": {"system": "OVCAR-3"}, "HT-29": {"system": "HT-29"}, "A549": {"system": "A549"}, "PC-3": {"system": "PC-3"}, "SN12C": {"system": "SN12C"}, "786-0": {"system": "786-0"}, "HCT-15": {"system": "HCT-15"}, "MDA-MB-231": {"system": "MDA-MB-231"}, "NCI-H226": {"system": "NCI-H226"}, "DU-145": {"system": "DU-145"}, "SK-MEL-5": {"system": "SK-MEL-5"}, "RPMI-8226": {"system": "RPMI-8226"}, "CAKI-1": {"system": "CAKI-1"}, "HCT-116": {"system": "HCT-116"}, "SW-620": {"system": "SW-620"}, "UO-31": {"system": "UO-31"}, "MOLT-4": {"system": "MOLT-4"}, "MDA-N": {"system": "MDA-N"}, "U-251": {"system": "U-251"}, "NCI-H522": {"system": "NCI-H522"}, "SNB-19": {"system": "SNB-19"}, "SK-MEL-2": {"system": "SK-MEL-2"}, "MDA-MB-435": {"system": "MDA-MB-435"}, "KM12": {"system": "KM12"}, "TK-10": {"system": "TK-10"}, "LOX IMVI": {"system": "LOX IMVI"}, "EKVX": {"system": "EKVX"}, "SK-OV-3": {"system": "SK-OV-3"}, "CCRF-CEM": {"system": "CCRF-CEM"}, "OVCAR-8": {"system": "OVCAR-8"}, "SF-268": {"system": "SF-268"}, "Malme-3M": {"system": "Malme-3M"}, "T47D": {"system": "T47D"}, "BT-549": {"system": "BT-549"}, "SK-MEL-28": {"system": "SK-MEL-28"}, "UACC-257": {"system": "UACC-257"}, "SF-295": {"system": "SF-295"}, "UACC-62": {"system": "UACC-62"}, "IGROV-1": {"system": "IGROV-1"}, "COLO 205": {"system": "COLO 205"}, "M14": {"system": "M14"}, "HOP-62": {"system": "HOP-62"}, "SNB-75": {"system": "SNB-75"}, "NCI/ADR-RES": {"system": "NCI/ADR-RES"}, "ACHN": {"system": "ACHN"}, "OVCAR-4": {"system": "OVCAR-4"}, "RXF 393": {"system": "RXF 393"}, "K562": {"system": "K562"}, "HOP-92": {"system": "HOP-92"}, "Hs-578T": {"system": "Hs-578T"}}, "note": "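Growth conditions: 96-well plates. Treatment: test compound, 48 hours, 5 concentrations. Analysis: linear interpolation between bracketing concentrations; unreached endpoints set to highest concentration. At the GI50, growth is halved.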 Activity calls are given as the source filed them. Cut-off read from the data, not from the text of the source: active = GI50 up to about 1.1 µM and inactive = higher.", "data": [{"molecule": "COc1cc(C2=C(C)[C@@H]3CN(CC=C3c3ccc(Cl)cc3)C2)c(S(=O)(=O)O)cc1OC", "values": [{"measurement": "GI50", "setting": "OVCAR-5", "result": "> 100 µM (inactive)"}, {"measurement": "GI50", "setting": "SR", "result": "> 100 µM (inactive)"}, {"measurement": "GI50", "setting": "NCI-H23", "result": "> 100 µM (inactive)"}, {"measurement": "GI50", "setting": "OVCAR-3", "result": "> 100 µM (inactive)"}, {"measurement": "GI50", "setting": "HT-29", "result": "> 100 µM (inactive)"}, {"measurement": "GI50", "setting": "A549", "result": "> 100 µM (inactive)"}, {"measurement": "GI50", "setting": "PC-3", "result": "> 100 µM (inactive)"}, {"measurement": "GI50", "setting": "SN12C", "result": "> 100 µM (inactive)"}, {"measurement": "GI50", "setting": "786-0", "result": "> 100 µM (inactive)"}, {"measurement": "GI50", "setting": "HCT-15", "result": "> 100", "unit": "µM"}, {"measurement": "GI50", "setting": "MDA-MB-231", "result": "> 100 µM (inactive)"}, {"measurement": "GI50", "setting": "NCI-H226", "result": "> 100 µM (inactive)"}, {"measurement": "GI50", "setting": "DU-145", "result": "> 100 µM (inactive)"}, {"measurement": "GI50", "setting": "SK-MEL-5", "result": "> 100 µM (inactive)"}, {"measurement": "GI50", "setting": "RPMI-8226", "result": "> 100 µM (inactive)"}, {"measurement": "GI50", "setting": "CAKI-1", "result": "> 100 µM (inactive)"}, {"measurement": "GI50", "setting": "HCT-116", "result": "> 100 µM (inactive)"}, {"measurement": "GI50", "setting": "SW-620", "result": "> 100 µM (inactive)"}, {"measurement": "GI50", "setting": "UO-31", "result": "> 100 µM (inactive)"}, {"measurement": "GI50", "setting": "MOLT-4", "result": "> 100 µM (inactive)"}, {"measurement": "GI50", "setting": "MDA-N", "result": "> 100 µM (inactive)"}, {"measurement": "GI50", "setting": "U-251", "result": "> 100 µM (inactive)"}, {"measurement": "GI50", "setting": "NCI-H522", "result": "> 100 µM (inactive)"}, {"measurement": "GI50", "setting": "SNB-19", "result": "> 100 µM (inactive)"}, {"measurement": "GI50", "setting": "SK-MEL-2", "result": "> 100 µM (inactive)"}, {"measurement": "GI50", "setting": "MDA-MB-435", "result": "> 100 µM (inactive)"}, {"measurement": "GI50", "setting": "KM12", "result": "> 100 µM (inactive)"}, {"measurement": "GI50", "setting": "TK-10", "result": "> 100 µM (inactive)"}, {"measurement": "GI50", "setting": "LOX IMVI", "result": "> 100 µM (inactive)"}, {"measurement": "GI50", "setting": "EKVX", "result": "> 100 µM (inactive)"}, {"measurement": "GI50", "setting": "SK-OV-3", "result": "> 100 µM (inactive)"}, {"measurement": "GI50", "setting": "CCRF-CEM", "result": "> 100 µM (inactive)"}, {"measurement": "GI50", "setting": "OVCAR-8", "result": "> 100 µM (inactive)"}, {"measurement": "GI50", "setting": "SF-268", "result": "> 100 µM (inactive)"}, {"measurement": "GI50", "setting": "Malme-3M", "result": "> 100 µM (inactive)"}, {"measurement": "GI50", "setting": "T47D", "result": "> 100 µM (inactive)"}, {"measurement": "GI50", "setting": "BT-549", "result": "> 100 µM (inactive)"}, {"measurement": "GI50", "setting": "SK-MEL-28", "result": "> 100 µM (inactive)"}, {"measurement": "GI50", "setting": "UACC-257", "result": "> 100 µM (inactive)"}, {"measurement": "GI50", "setting": "SF-295", "result": "> 100 µM (inactive)"}, {"measurement": "GI50", "setting": "UACC-62", "result": "> 100 µM (inactive)"}, {"measurement": "GI50", "setting": "IGROV-1", "result": "> 100 µM (inactive)"}, {"measurement": "GI50", "setting": "COLO 205", "result": "> 100 µM (inactive)"}, {"measurement": "GI50", "setting": "M14", "result": "> 100 µM (inactive)"}, {"measurement": "GI50", "setting": "HOP-62", "result": "> 100 µM (inactive)"}, {"measurement": "GI50", "setting": "SNB-75", "result": "> 100 µM (inactive)"}, {"measurement": "GI50", "setting": "NCI/ADR-RES", "result": "> 100 µM (inactive)"}, {"measurement": "GI50", "setting": "ACHN", "result": "> 100 µM (inactive)"}, {"measurement": "GI50", "setting": "OVCAR-4", "result": "> 100 µM (inactive)"}, {"measurement": "GI50", "setting": "RXF 393", "result": "> 100 µM (inactive)"}, {"measurement": "GI50", "setting": "K562", "result": "> 100 µM (inactive)"}, {"measurement": "GI50", "setting": "HOP-92", "result": "> 100 µM (inactive)"}, {"measurement": "GI50", "setting": "Hs-578T", "result": "> 100 µM (inactive)"}]}]}
